Data as given in US20240382601A1, “EMULSION FORMULATION HAVING HIGH FORMULATION STABILITY AND MANUFACTURING METHOD THEREOF” (AMOREPACIFIC CORPORATION, priority 2023, published 2024).

Legend:
[1] = logP values of complex ingredients
Description: (§1) Among the above ingredients, the logP values of dipropylene glycol, diethoxyethyl 5 succinate.

[2] = HLB values of surfactants; assay type: physicochemical
Description: as §1

Row | HLB [2] | Compound | logP [1]
1 |  | CCOCCOC(=O)CCC(=O)OCCOCC [Diethoxyethyl succinate] | 0.25
2 |  | CCCCCCCCCCCCOCCOCCO [Diethylene glycol lauryl ether] | 4
3 | 17 | Polysorbate 20 | 
4 | 15 | Polysorbate 60 | 
